In US4100153A, “(D-Trp^5)-somatostatin and analogues thereof” (American Home Products Corporation, priority 1977, dated 1978):
Bridge positions count the residues as written; N and C are the ends. Square brackets hold non-standard residues; d marks the D form. Peptide text beside a SMILES is read from it.

Legend:
Format in all cases: in vivo
glucagon = assay: Arginine-stimulated hormone secretion in Nembutal-treated rats, radioimmunoassay of glucagon
Experimental: (§1) Albino male rats were administered Nembutal intraperitoneally at a dose of 50 milligrams per kilogram. Fifteen minutes later a subcutaneous injection of the test compound or physiological saline was administered. Ten minutes later 0.5 milliliters of arginine (300 milligrams per milliliter, pH 7.2) is injected into the heart. Five minutes after receipt of the arginine the rats are decapitated and blood is collected into trasylol-EDTA. An appropriate aliquot was assayed for growth hormone, insulin, and glucagon by radioimmunoassay.

insulin = assay: Arginine-stimulated hormone secretion in Nembutal-treated rats, radioimmunoassay of insulin
Experimental: as §1

growth hormone secretion = assay: Effect on growth hormone secretion over time in rats treated with Nembutal, plasma GH by radioimmunoassay; conditions: for Growth Hormone: dose 1,000 μg/kg
Experimental: (D-Trp^5, D-Trp^8)-Somatostatin was also tested for its effect on growth hormone secretion in rats treated with Nembutal after 1, 2, 4, 5, 6, and 8 hours. Blood samples were obtained by cardiac puncture and plasma separated for radio immunoassay of GH concentration.

growth hormone = assay: Arginine-stimulated hormone secretion in Nembutal-treated rats, radioimmunoassay of growth hormone
Experimental: as §1

Question: Which Glucagon (glucagon; dose 10 μg/kg subcutaneous, control 44 ± 8, marked * not significant) does the source give for `C[C@H](N)C(=O)NCC(=O)N[C@H]1CSSC[C@@H](C(=O)O)NC(=O)[C@H](CO)NC(=O)[C@H]([C@@H](C)O)NC(=O)[C@H](Cc2ccccc2)NC(=O)[C@H]([C@@H](C)O)NC(=O)[C@H](CCCCN)NC(=O)[C@@H](Cc2c[nH]c3ccccc23)NC(=O)[C@H](Cc2ccccc2)NC(=O)[C@H](Cc2ccccc2)NC(=O)[C@@H](Cc2c[nH]c3ccccc23)NC(=O)[C@H](CCCCN)NC1=O` [(D-Trp^5, D-Trp^8)-Somatostatin, L-alanylglycyl-L-cysteinyl-L-lysyl-D-tryptophyl-L-phenylalanyl-L-phenylalanyl-D-tryptophyl-L-lysyl-L-threonyl-L-phenylalanyl-L-threonyl-L-seryl-L-cysteine cyclic (3→14)-disulfide, triacetate] (H-AGCK[dW]FF[dW]KTFTSC-OH; disulfide 3-14) here?
Answer: 36 ± 5 pg/mL

Question: What about the Glucagon (glucagon; dose 100 μg/kg subcutaneous, control 44 ± 8, marked * not significant) of the same compound?
Answer: 31 ± 5 pg/mL

Question: And the Glucagon (glucagon; dose 1,000 μg/kg subcutaneous, control 46 ± 7)?
Answer: 17 ± 4 pg/mL

Question: And the “Effect on glucagon levels (in words)” value (glucagon; dose of 10 or 100 μg/kg)?
Answer: without materially affecting glucagon levels

Question: And the “Effect on release of glucagon (in words)” value (glucagon; higher dose (1 mg/kg))?
Answer: inhibited release of growth hormone, insulin, and glucagon

Question: What about the Insulin (insulin; dose 10 μg/kg subcutaneous, control 348 ± 36) of the same compound?
Answer: 183 ± 12 μU/ml

Question: And the Insulin (insulin; dose 100 μg/kg subcutaneous, control 348 ± 36)?
Answer: 105 ± 9 μU/ml

Question: What about the Insulin (insulin; dose 1,000 μg/kg subcutaneous, control 314 ± 46) of the same compound?
Answer: 33 ± 6 μU/ml

Question: What about the “Effect on secretion of insulin (in words)” value (insulin; dose of 10 or 100 μg/kg) of the same compound?
Answer: effective agent for reducing secretion of growth hormone and insulin

Question: And the “Effect on release of insulin (in words)” value (insulin; higher dose (1 mg/kg))?
Answer: inhibited release of growth hormone, insulin

Question: What about the “Duration of inhibition of growth-hormone release (in words)” value (growth hormone secretion; 1,000 μg/kg, 1 to 8 hours) of the same compound?
Answer: long-acting inhibition of growth-hormone release

Question: What about the “Growth Hormone” value (growth hormone secretion; time 1 hr, control 61 ± 14) of the same compound?
Answer: 5 ± 2 ng/mL

Question: And the “Growth Hormone” value (growth hormone secretion; time 2 hrs, control 227 ± 44)?
Answer: 16 ± 2 ng/mL

Question: And the “Growth Hormone” value (growth hormone secretion; time 4 hrs, control 84 ± 13)?
Answer: 32 ± 10 ng/mL

Question: And the “Growth Hormone” value (growth hormone secretion; time 5 hrs, control 73 ± 11)?
Answer: 16 ± 3 ng/mL

Question: And the “Growth Hormone” value (growth hormone secretion; time 6 hrs, control 156 ± 42)?
Answer: 22 ± 2 ng/mL

Question: And the “Growth Hormone” value (growth hormone secretion; time 8 hrs, control 55 ± 22)?
Answer: 31 ± 11 ng/mL

Question: What about the GH (growth hormone; dose 10 μg/kg subcutaneous, control 133 ± 32) of the same compound?
Answer: 40 ± 6 ng/mL

Question: And the GH (growth hormone; dose 100 μg/kg subcutaneous, control 133 ± 32)?
Answer: 25 ± 5 ng/mL

Question: What about the GH (growth hormone; dose 1,000 μg/kg subcutaneous, blood 15 min after dosing, 5 min after arginine, control 259 ± 29) of the same compound?
Answer: 52 ± 5 ng/mL

Question: And the “Effect on secretion of growth hormone (in words)” value (growth hormone; dose of 10 or 100 μg/kg)?
Answer: effective agent for reducing secretion of growth hormone

Question: What about the “Effect on release of growth hormone (in words)” value (growth hormone; higher dose (1 mg/kg)) of the same compound?
Answer: inhibited release of growth hormone
